Laboratory results taken from the NIST ThermoML archive (doi:10.1007/s10765-016-2109-2).

Assays:
[1] = Liquid, isochoric method
[2] = molar heat capacity at constant volume; settings: Liquid, Vacuum adiabatic calorimetry

CCCCCC[n+]1ccn(C)c1.O=S(=O)([N-]S(=O)(=O)C(F)(F)F)C(F)(F)F
[1]
Settings | mass density [kg/m3]
325.26 K | 1344.14
350.36 K | 1323.92

[2]
Settings | molar heat capacity at constant volume [J/K/mol]
325.26 K, Mass density=1344.14 kg/m3 | 609.39
325.39 K, Mass density=1344.14 kg/m3 | 608.49
325.51 K, Mass density=1344.14 kg/m3 | 608.94
325.63 K, Mass density=1344.14 kg/m3 | 608.49
325.75 K, Mass density=1344.14 kg/m3 | 609.83
325.88 K, Mass density=1344.14 kg/m3 | 608.94
326 K, Mass density=1344.14 kg/m3 | 608.04
326.13 K, Mass density=1344.14 kg/m3 | 606.7
326.26 K, Mass density=1344.14 kg/m3 | 608.49
328.58 K, Mass density=1344.14 kg/m3 | 609.83
328.7 K, Mass density=1344.14 kg/m3 | 608.49
328.82 K, Mass density=1344.14 kg/m3 | 607.6
328.94 K, Mass density=1344.14 kg/m3 | 606.25
329.07 K, Mass density=1344.14 kg/m3 | 607.15
329.19 K, Mass density=1344.14 kg/m3 | 609.39
329.31 K, Mass density=1344.14 kg/m3 | 609.83
329.43 K, Mass density=1344.14 kg/m3 | 605.36
333.09 K, Mass density=1344.14 kg/m3 | 612.07
333.21 K, Mass density=1344.14 kg/m3 | 606.25
333.33 K, Mass density=1344.14 kg/m3 | 609.39
333.45 K, Mass density=1344.14 kg/m3 | 613.86
333.57 K, Mass density=1344.14 kg/m3 | 607.6
333.7 K, Mass density=1344.14 kg/m3 | 610.73
333.82 K, Mass density=1344.14 kg/m3 | 613.41
333.94 K, Mass density=1344.14 kg/m3 | 609.83
341.28 K, Mass density=1344.14 kg/m3 | 615.2
341.4 K, Mass density=1344.14 kg/m3 | 610.73
341.52 K, Mass density=1344.14 kg/m3 | 617.44
341.64 K, Mass density=1344.14 kg/m3 | 612.96
341.76 K, Mass density=1344.14 kg/m3 | 620.12
341.88 K, Mass density=1344.14 kg/m3 | 615.65
342 K, Mass density=1344.14 kg/m3 | 614.75
342.12 K, Mass density=1344.14 kg/m3 | 618.78
348.64 K, Mass density=1344.14 kg/m3 | 619.23
348.76 K, Mass density=1344.14 kg/m3 | 617.89
348.88 K, Mass density=1344.14 kg/m3 | 621.91
348.99 K, Mass density=1344.14 kg/m3 | 620.12
349.11 K, Mass density=1344.14 kg/m3 | 618.78
349.23 K, Mass density=1344.14 kg/m3 | 623.7
349.35 K, Mass density=1344.14 kg/m3 | 617.44
349.47 K, Mass density=1344.14 kg/m3 | 622.81
349.58 K, Mass density=1344.14 kg/m3 | 619.68
350.36 K, Mass density=1323.92 kg/m3 | 625.05
350.41 K, Mass density=1323.92 kg/m3 | 624.15
350.53 K, Mass density=1323.92 kg/m3 | 623.26
350.64 K, Mass density=1323.92 kg/m3 | 622.36
350.76 K, Mass density=1323.92 kg/m3 | 625.49
350.88 K, Mass density=1323.92 kg/m3 | 624.6
350.99 K, Mass density=1323.92 kg/m3 | 621.02
351.11 K, Mass density=1323.92 kg/m3 | 621.91
351.23 K, Mass density=1323.92 kg/m3 | 623.26
351.35 K, Mass density=1323.92 kg/m3 | 620.12
351.46 K, Mass density=1323.92 kg/m3 | 621.02
351.58 K, Mass density=1323.92 kg/m3 | 622.36
351.7 K, Mass density=1323.92 kg/m3 | 620.57
351.82 K, Mass density=1323.92 kg/m3 | 621.47
351.93 K, Mass density=1323.92 kg/m3 | 619.68
352.03 K, Mass density=1323.92 kg/m3 | 621.47
360.03 K, Mass density=1323.92 kg/m3 | 626.39
360.19 K, Mass density=1323.92 kg/m3 | 624.15
360.3 K, Mass density=1323.92 kg/m3 | 628.18
360.42 K, Mass density=1323.92 kg/m3 | 622.81
360.53 K, Mass density=1323.92 kg/m3 | 625.05
360.65 K, Mass density=1323.92 kg/m3 | 622.36
360.76 K, Mass density=1323.92 kg/m3 | 623.26
360.88 K, Mass density=1323.92 kg/m3 | 621.02
360.99 K, Mass density=1323.92 kg/m3 | 621.47
361.11 K, Mass density=1323.92 kg/m3 | 622.81
361.22 K, Mass density=1323.92 kg/m3 | 620.57
361.34 K, Mass density=1323.92 kg/m3 | 627.28
365.26 K, Mass density=1323.92 kg/m3 | 624.15
365.35 K, Mass density=1323.92 kg/m3 | 629.52
365.47 K, Mass density=1323.92 kg/m3 | 627.28
365.58 K, Mass density=1323.92 kg/m3 | 625.49
365.69 K, Mass density=1323.92 kg/m3 | 632.65
365.81 K, Mass density=1323.92 kg/m3 | 622.36
365.92 K, Mass density=1323.92 kg/m3 | 629.07
366.04 K, Mass density=1323.92 kg/m3 | 627.28
366.15 K, Mass density=1323.92 kg/m3 | 630.41
366.27 K, Mass density=1323.92 kg/m3 | 623.7
366.38 K, Mass density=1323.92 kg/m3 | 629.97
372.87 K, Mass density=1323.92 kg/m3 | 635.78
372.96 K, Mass density=1323.92 kg/m3 | 634.44
373.07 K, Mass density=1323.92 kg/m3 | 631.76
373.18 K, Mass density=1323.92 kg/m3 | 633.1
373.29 K, Mass density=1323.92 kg/m3 | 636.68
373.41 K, Mass density=1323.92 kg/m3 | 629.07
373.52 K, Mass density=1323.92 kg/m3 | 634.89
373.63 K, Mass density=1323.92 kg/m3 | 629.97
373.74 K, Mass density=1323.92 kg/m3 | 631.31
373.86 K, Mass density=1323.92 kg/m3 | 638.02
373.97 K, Mass density=1323.92 kg/m3 | 636.68
374.08 K, Mass density=1323.92 kg/m3 | 638.92
